Results from publication PMC13099959, “Context-dependent activation and evolutionary buffering of a mating pheromone in fission yeast” (Communications Biology, 2026).
No end group written: not given here. Far = not defined here

Assays:
[1] = system: S. pombe h90 strains (mating and sporulation); assay: Frequency of zygote formation (microscopy-based mating frequency); type: cell-based, Schizosaccharomyces pombe
Protocol: Cells were pre-cultured on YEA medium at 30 °C overnight, washed with 1 mL sterilized water (10,000 rpm, 3 min, 4 °C), and adjusted to an OD600 of 5.0. Aliquots (30 µL) were spotted on YEA, MEA, SSA, or fruit/vegetable juice media (grape, orange, apple, vegetable) and incubated at 30 °C for 48 h. After 48 h, cells were harvested and examined using a differential interference contrast microscopy (BX53, Olympus, Tokyo, Japan) with the UPlanSApo 60×/1.35 NA oil-immersion objective, ORCA-spark camera (Hamamatsu Photonics, Hamamatsu, Japan), and CellSens software. Nine random fields were imaged per plate. Mating rates were calculated as in Seike et al.[11] using the equation: Mating rate(%)=2Z+2A+0.5S×100/V+2Z+2A+0.5S where V, Z, A, and S represent vegetative cells, zygotes, asci, and spores, respectively. Data are reported as the mean ±s.d.
All statistical analyses treated biological replicates (n = 3) as the unit of replication. Unless stated otherwise, values are reported as mean ± s.d., tests were two-sided, and no data were excluded. For two-group comparisons we used Welch’s t test (unequal variances). Significance in figures is denoted as p < 0.05, p < 0.01, and p < 0.001. […] For microscopy-based mating assays, nine random fields were scored per plate; field values were averaged within each biological replicate to avoid pseudoreplication. […] Analyses were performed in Python (pandas, numpy, math); plots were generated using matplotlib and seaborn.

[2] = biological target: T1, M-factor receptor Map3 (Schizosaccharomyces pombe, UniProt P31397); assay: In vitro M-factor activity assay using a map4 promoter–lacZ fusion (β-galactosidase); type: cell-based; conditions: synthetic peptide 10 µM, map4-lacZ reporter strain, nitrogen-free SSL medium, pH 5.5 or 7.0
T1 construct: Tester strain TS472 was inoculated into 5 mL SSL + N medium; endogenous in cells; host or cells: S. pombe tester strain TS472 (map4 promoter-lacZ reporter)
T1 sequence (P31397 1-365): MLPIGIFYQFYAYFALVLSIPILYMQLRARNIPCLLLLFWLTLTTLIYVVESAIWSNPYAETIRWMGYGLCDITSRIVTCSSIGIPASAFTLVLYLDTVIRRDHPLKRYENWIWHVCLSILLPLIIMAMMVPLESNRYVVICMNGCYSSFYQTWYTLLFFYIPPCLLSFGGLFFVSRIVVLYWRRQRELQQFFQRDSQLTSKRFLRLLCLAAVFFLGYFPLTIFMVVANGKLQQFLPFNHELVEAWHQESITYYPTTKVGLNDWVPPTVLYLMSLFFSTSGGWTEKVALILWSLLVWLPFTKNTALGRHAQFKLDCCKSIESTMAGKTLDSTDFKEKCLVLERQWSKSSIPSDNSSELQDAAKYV
Protocol: β-galactosidase activity was measured to evaluate activation of the M-factor receptor Map3 using synthetic M-factor peptides, following a previously described method[22]. Tester strain TS472 was inoculated into 5 mL SSL + N medium (SSA without agar) at an initial OD600 of 0.1 and cultured at 30 °C for 20 h. Cells were washed three times with SSL–N medium (lacking 0.5 g/L aspartic acid) and resuspended in SSL–N at varying pH values (adjusted with HCl or NaOH) to OD600 = 2.0.
Thereafter, cells were washed and resuspended in Z-buffer (60 mM Na2HPO4, 40 mM NaH2PO4, 10 mM KCl, 1 mM MgSO4·7H2O, and 50 mM β-mercaptoethanol; pH 7.0) to OD600 = 5.0. For each replicate (n = 3), 200 µL of cell suspension was mixed with 600 µL Z-buffer, 15 µL chloroform, and 12 µL 0.1% SDS, vortexed, and incubated at 30 °C for 5 min. Reactions were initiated with 160 µL o-nitrophenyl-β-D-galactopyranoside (ONPG; 4 mg/mL in Z-buffer), and both start and end times were recorded. After incubation at 30 °C, reactions were terminated with 400 µL 1 M Na2CO3, centrifuged (13,000 rpm, 3 min, 4 °C), and 200 µL supernatant was diluted into 1 mL 0.33 M Na2CO3. Absorbance at 420 nm (OD420) was measured to calculate Miller units. Miller units=(OD420×1000)/(V×t×OD600) where V is reaction volume (mL) and t is reaction time (minute). Data are reported as the mean ± s.d. […]

Row | Substance | Mating competence at pH 5.5 ([1]; SSA pH 5.5, 48 h) | Cells forming mature asci ([1]; SSA pH 7.5–8.5, 48 h) | Effect on mating in background with intact mfm2+ and mfm3+ genes ([1]; mfm1-P36H in h90 mfm2+ mfm3+ background, SSA pH 5.5 and pH 7.0) | pH dependence of β-galactosidase activity (Map3 activation) [2]
1 | P6H: M-factor single-amino acid variant; also tested as synthetic peptide (Eurofins) (YTPKVHYMC(Far)-OMe; ends and bridges not checked; UniProt P34068 31-39, looked up, variant P36H) | virtually sterile | approximately 50% | does not exert a dominant-negative effect on mating | –
2 | T2Q: M-factor single-amino acid variant; also tested as synthetic peptide (Eurofins) (YQPKVPYMC(Far)-OMe; ends and bridges not checked; UniProt P34068 31-39, looked up, variant T32Q) | – | – | – | higher activity at acidic pH
